Publication PMC8910649, “An Efficient Way to Screen Inhibitors of Energy-Coupling Factor (ECF) Transporters in a Bacterial Uptake Assay” (International Journal of Molecular Sciences, 2022)
≈ marks a conversion by molar mass, not a printed value. Where two headings read alike, the source gives them in different places.

Experiments:
[1] = tested on: ECF FolT2 transporter; settings: cited from earlier work
[2] = tested on: ECF FolT transporter; assay: Bacterial (whole-cell) folate uptake assay in L. casei; settings: for Inhibition at 200 μM: folate import
Experimental: The OD600 was measured in a Nanodrop 2000c spectrophotometer (Thermo Fisher Scientific, Waltham, MA, USA) using half-micro cuvettes. The culture was diluted to OD600 = 0.06 in 25 mL and grown under the same conditions as before for 16 h. The new overnight culture was diluted to OD600 = 0.4 in 25 mL MRS medium and regrown in a 50 mL reaction tube for 2 h under the same conditions. The culture was subsequently centrifuged, washed with 50 mL PBS (50 mM, pH 7.4), centrifuged again, and resuspended in citrate buffer (20 mM, pH 6, 2% D-Glucose, 8 g/L NaCl, 0.2 g/L KCl) while adjusting the OD600 to 0.5. Then, 185 μL of this cell suspension was subsequently distributed on an opaque MultiScreen HTS Filter Plate-GV (Merck KGaA, Darmstadt, Germany). For each plate, two wells containing buffer for blank determination were included. A stock solution of compounds in DMSO (10 μL) was added to the wells and mixed (final DMSO conc. = 5%), followed by a preincubation at RT for 10 min. The solubility of the compounds in citrate buffer was verified in 96-well plates. Poorly soluble compounds were tested at the highest possible concentration. In addition, for each plate, four negative controls containing DMSO instead of inhibitor and a positive control were included. Tritium-labeled folic acid (Moravek Biochemicals, Brea, CA, USA) (5 μL, 2 μM, radioactivity was adjusted to 12.7 Ci/mmol using unlabeled folic acid) was added to the wells leading to a final concentration of 50 nM. The solutions were mixed (final volume 200 μL) as before, and the plate was incubated in a preheated incubator at 30 °C for 30 min. The plate was covered with sealing tape during the incubation steps to avoid evaporation. To stop the reaction, the liquid in the filter plates was removed from the cells by centrifugation (3 min at 1500× g). Subsequently, the cells were washed twice with PBS (10 mM, pH 7.2), followed by centrifugation steps (3 and 5 min at 1500× g). After removal of the underdrain, residual liquid on the bottom of the filters was removed using lint-free paper towels and the plate was dried at 50 °C in the incubator. After 10 min, 30 μL of liquid scintillating fluid was added into each well, the plate was covered with sealing tape and gently vortexed for 5 min. Relative radioactivity was determined for 1 min each well in a Wallac MicroBeta TriLux BetaCounter (Perkin Elmer, Waltham, MA, USA). […] Counts were averaged and after subtraction of the blank, the percentage of inhibition was determined by the following formula: Inh. %=100-x inhibitor/x negative control×100 The data were plotted including standard deviations. IC50 values were determined by plotting percentages of inhibition against the related concentrations and fitting the Origin standard function “Hill1” to the data. The KM was determined by plotting the relative radioactivity against the folic acid concentration and fitting the Origin standard function “Hyperbl” to the data.

[3] = tested on: Streptococcus pneumoniae DSM-20566; assay: Antibacterial testing (MIC); type: cell-based; settings: DSM20566; Streptococcus pneumoniae DSM-20566, auxotrophic
Experimental: (§1) Figure S12. Screening a broad library (4−22) against ECF FolT2 transporter in the L. casei bacterial assay. Compou nds colored i n blue s howed inhibiti on bi gger than 20% when tested at 500 µ M.
(§2) Compounds were prepared as DMSO stocks a nd minimum inhibitory concentrations (MIC) were determined as de-scribed elsewhere. Bacteria were handled according to standard procedures and w ere obtained from the Ger man Col-lection of M icroorganisms and Cell Cultures (DSMZ) or were part of our interna l strain collection. In brief, bacterial cultures were diluted in Tryptic Soy Broth (TSB; 1.7% pepto ne casein, 0.3% peptone soymeal, 0.25% glucose, 0.5% NaCl, 0.25% K2HPO4; pH 7.3) or Müller– Hinton br oth (0.2% beef infusion solids, 1.75% casein hydr olysate, 0.15% starch, pH 7.4) to achieve a final inoculum of approximately 10 4 to 105 cfu/mL. Compou nd s were tested in serial dilution (0.06– […]
(§3) Organisms FolT EcfT EcfA1 EcfA2 Figure S13:
(§4) Lactobacillus delbrueckii A0A061BSU4 Q1GBJ0 Q1GBI9 numbers of the […]
(§5) Lactobacillus casei transporter (FolT,

[4] = tested on: Streptococcus pneumoniae DSM-11865 (PRSP); assay: Antibacterial testing (MIC); type: cell-based; settings: auxotrophic
Experimental: as §1, §2, §3, §4, §5

[5] = tested on: Staphylococcus aureus str. Newman; assay: Antibacterial testing (MIC); type: cell-based; settings: not auxotrophic
Experimental: as §1, §2, §3, §4, §5

[6] = Solubility of the compounds in citrate buffer (assay conditions); type: physicochemical
Experimental: The data were analyzed by using OriginPro 2018G (OriginLab Corporation, Northampton, MA, USA).

O=C(O)c1cc(OCc2cccc3ccccc23)ccc1O [Compound 1, reference compound]
IC50 ([1]; uptake into proteoliposomes, ECF FolT2 from L. delbrueckii): 282 ± 108 µM

O=C(O)CNCc1ccc(-c2ccc(Cl)cc2)o1 [Compound 2]
IC50 ([1]; proteoliposome uptake (in vitro assay, L. delbrueckii)): > 1200 µM
inhibition of folic acid uptake: inactive up to ([2]; bacterial uptake assay L. casei): > 1.2 mM

O=C(O)c1cccc(NCc2ccc(-c3ccc(Cl)cc3)o2)c1 [Compound 3]
MIC [3]: 21 µg/mL (≈ 64.1 µM)
MIC [4]: 10 µg/mL (≈ 30.5 µM)
MIC [5]: 23 µg/mL (≈ 70.2 µM)
Inhibition at 200 μM ([2]; L. casei based uptake assay): 43% (IC50 = 204 ± 22 μM)
IC50 ([2]; bacterial uptake assay, L. casei, 50 nM radiolabeled folic acid): 204 ± 22 µM

O=C(O)c1ccccc1NCc1ccc(-c2ccc(Cl)cc2)o1 [Compound 23]
solubility under the conditions of the assay [6]: insoluble
solubility ([6]; citrate buffer with 5% DMSO, 96-well plates, pH 6, aqueous with cosolvent or surfactant or cyclodextrin, kinetic from dmso stock, citrate buffer, read-out: solubility limit (not soluble above)): ≤ 50 µM
Inhibition at 50 µM ([2]; 50 µM (not soluble above 50 μM), L. casei based uptake assay): 11% at 50 µM

O=C(O)c1ccc(NCc2ccc(-c3ccc(Cl)cc3)o2)cc1 [Compound 24]
Inhibition at 500 μM ([2]; 500 μM, L. casei based uptake assay): n.i at 500 μM (n.i. = no inhibition (if inhibition < 10%))
inhibition ([2]; up to 500 μM, L. casei uptake assay): no inhibition

O=C(O)c1cccc(NCc2ccc(-c3cccc(Cl)c3)o2)c1 [Compound 25]
Inhibition at 200 μM ([2]; L. casei based uptake assay): 41%

O=C(O)c1cccc(NCc2ccc(-c3ccccc3Cl)o2)c1 [Compound 26]
Inhibition at 200 μM ([2]; L. casei based uptake assay): 36%

O=C(O)c1cccc(NCc2cc(-c3ccc(Cl)cc3)co2)c1 [Compound 27]
Inhibition at 200 μM ([2]; L. casei based uptake assay): 8%

Nc1nc(=O)c2nc(CNc3ccc(C(=O)N[C@@H](CCC(=O)O)C(=O)O)cc3)cnc2[nH]1 [folic acid]
Km ([2]; read-out: KM of folate uptake, substrate-dependent folate uptake in L. casei, PBS (50 mM, pH 7.4, 2% Glucose)): 0.049 µM
Vmax of folate uptake ([2]; substrate-dependent folate uptake in L. casei, PBS (50 mM, pH 7.4, 2% Glucose)): 83 (±2) counts per minute (cpm)
